According to patent US10925280B2, “Solid agrochemical compositions” (UPL LIMITED, priority 2015, dated 2021):

Experiments:
[1] = Weight gain (uptake of moisture) at 30° C. and 60% humidity as per ASTM (1996) method; type: physicochemical
Source text: (§1) It has been observed that the granular compositions according to the present inventions are dry solids as evidenced by the appearance. […] Further, the granules were appeared as dry solids after 6 months of storage. The inventors of the present invention confirmed the stability of the granules by investigating the weight gain of the compositions and by calculating the relative weight gain with respect to glufosinate salt. The weight gain of the granular compositions according to the present invention were investigated at 30° C. and 60% humidity as per ASTM (1996) method and the results are summarized in the below table (Table 3).
Relative % weight gain of the composition is calculated using the formula given below:
[formula] [formula] • wherein X is glufosinate ammonium technical

[2] = Physical appearance in open containers at ambient conditions; type: physicochemical
Source text: The appearances for the granular compositions prepared according to the present invention were investigated in open containers at ambient conditions.
as §1

## CP(=O)(O)CCC(N)C(=O)O (stereo not shown) [Glufosinate ammonium, 2-amino-4-[hydroxy(methyl)phosphinoyl]butyric acid]
[1]; 24 hrs
  % weight gain after 24 hrs: 1.834%
  Weight of sample after 24 hrs: 1.0219 g
[1]; 24 hrs, relative to glufosinate ammonium technical
  Relative % weight gain after 24 hrs: 100%
[1]; start
  Weight of sample: 1.0035 g
[2]; 0 hrs
  Appearance at 0 hrs: Dry solid
[2]; 24 hrs
  Appearance After 24 hrs: Wet solid
[2]; 72 hrs
  Appearance After 72 hrs: Liquid
